For data set [1], the system named is collagen II induced arthritis in female Wistar rats. Description: Collagen II induced arthritis (CIA). It is filed as in vivo. How it is done:
Collagen II solution (collagen, 2 mg/ml in 0.05M acetic acid, Chondrex 20022, Redmond, Wash., USA) was emulsified with an equal volume of incomplete Freund's adjuvant (IFA, Chondrex 7002, Redmond, Wash., USA) at 4° C. using a high-speed homogenizer. In the experiment of CIA, DMY was encapsulated with HP-CD (1:8.48) and then dissolved in the normal saline with drug concentrations of 50 and 100 mg/kg body weight. Rats were intradermally injected at the base of the tail with 100 μl collagen/incomplete Freund's adjuvant (IFA) emulsion containing […] of collagen II by the use of a glass syringe equipped with a locking hub and a 27-G needle. On day 7 after the primary immunization, all the rats were given a booster injection of 100 μg of collagen II in IFA. On the day after the onset of arthritis (day 13), the CIA rats were exposed to a daily intraperitoneal administration of DMY (50 and 100 mg/kg) until day 30 of the study. DEX (0.1 mg/kg, one per day), MTX (3.75 mg/kg, twice per week), and indomethacin (1 mg/kg, one per day) were used as positive reference drugs. The rats were inspected daily from the onset of arthritis characterized by edema and/or erythema in the paws. The incidence and severity of arthritis were evaluated using an arthritic scoring system, and bi-hind paw volumes and body weight were measured every 2 days started on the day when the arthritic signs were firstly visible (day 13). In the arthritic scoring system, lesions (i.e., the clinical arthritic signs) of the four paws of each rat were graded from 0 to 4 according to the extent of both edema and erythema of the periarticular tissues. As such, 16 was the potential maximum of the combined arthritic scores per animal. The hind paw volumes were measured using a plethysmometer chamber (7140 UGO. Basile, Comerio, Italy) and expressed as the mean volume change of both hind paws of the rats. Body weight of the rats was monitored with a 0.1 g precision balance (Sartorius AG, Goettingen, Germany). On day 30, all rats were sacrificed with liver, spleen and thymus being collected and weighted. The organ index for a specific organ is equal to the ratio of the weight of that organ to a body weight of 100 g.

For data set [2], the system named is ear edema induced by dinitrofluorobenzene in male ICR mice. Description: Delay-type hypersensitivity test (DNFB-induced ear edema). It is filed as in vivo. Conditions: DTHT mice, topical treatment. The procedure:
Male mice were sensitized through topical application of 20 μl of 0.5% (v/v) dinitrofluorobenzene (DNFB) in acetone onto the shaved abdomen on days 1 and 2. Challenge was then preformed in day 6 by applying DNFB (20 μl, 0.5%, v/v) on the left inner and outer ear surfaces of mice. DMY (at doses of 0.5, 1, 2 mg/ear) and DEX (0.025 mg/ear, Sigma-Aldrich) dissolved in acetone was topically applied (20 μl) to the ears at 2nd, 24th, 48th, and 72nd hour after the challenge. The mice were sacrificed by cervical dislocation, and then the same area of the ears was punched from each animal. Spleens and thymuses were isolated and weighted. The ear edema was calculated according to the differences between the weight of the right and left ears. The control group was treated only with DNFB.

In the case of `C[C@@H]1C[C@H]2[C@@H]3CCC4=CC(=O)C=C[C@]4(C)[C@@]3(F)[C@@H](O)C[C@]2(C)[C@@]1(O)C(=O)CO` [DEX, reference compound], the “organ indexes of spleen and/or thymus” value in data set [1] (rat, in vivo) is recorded as “significant reduction”. Further, the body weight entry in data set [2] is “greatly reduced”. Further, in data set [2] (FIGS. 9B and C), the spleen weight entry is “decreased” and the thymus weight result was “decreased”.
As for `CN(Cc1cnc2nc(N)nc(N)c2n1)c1ccc(C(=O)N[C@@H](CCC(=O)O)C(=O)O)cc1` [MTX, reference compound], the “organ indexes of spleen and/or thymus” value in data set [1] (rat, in vivo) is recorded as “significant reduction”.
Consider `COc1ccc2c(c1)c(CC(=O)O)c(C)n2C(=O)c1ccc(Cl)cc1` [indomethacin, reference compound], for which the “organ indexes of spleen and/or thymus” value in data set [1] (CIA rats, day 30, FIG. 10C) is “significant reduction”. Also, the body weight result in data set [1] (CIA rats, FIG. 100D) is reported as “significant reduction in body weight”.

The record behind these values is patent US20120053235A1, “Dihydromyricetin as an IKK-beta inhibitor used for treatment of arthritis, cancer and autoimmune conditions, and other diseases or disorders” (HONG KONG BAPTIST UNIVERSITY, priority 2010, published 2012).
